Data on 72 compounds can be found in US7973069B2 (PTC Therapeutics, Inc., priority 2004, dated 2011).

Values joined by “and” are separate entries in the source; they are usually repeats but may differ in a detail not shown here. Identical values can stand only once.

The test system of the assay is HCV replicon. The assay is classed as cell-based.
The IC50 is the concentration at which inhibition is half-maximal. The low end stands for greater potency, the high end for weaker potency. With `CCOC(=O)Nc1ccc(-c2c(C#N)c3ccc(OCC)cc3n2C2CCCC2)cc1` [Compound 1127], the IC50 was less than 0.5 µM. Turning to `CCCOC(=O)Nc1ccc(-c2c(C#N)c3ccc(OCC)cc3n2C2CCCC2)cc1` [Compound 1128], the IC50 is less than 0.5 µM. As for `CCOc1ccc2c(C#N)c(-c3ccc(NC(=O)OC(C)C)cc3)n(C3CCCC3)c2c1` [Compound 1129], the IC50 was less than 0.5 µM. In turn, `CCOC(=O)Nc1ccc(-c2c(C#N)c3ccc(OC(F)F)cc3n2CC)cc1` [Compound 1131] came in with an IC50 of 0.5 to 2 µM. The figure for `CCCOC(=O)Nc1ccc(-c2c(C#N)c3ccc(OC(F)F)cc3n2CC)cc1` [Compound 1132] is 0.5 to 2 µM; for `CCCCOC(=O)Nc1ccc(-c2c(C#N)c3ccc(OC(F)F)cc3n2CC)cc1` [Compound 1133] it is 0.5 to 2 µM; for `CCn1c(-c2ccc(NC(=O)OCC(C)C)cc2)c(C#N)c2ccc(OC(F)F)cc21` [Compound 1134] it is 0.5 to 2 µM.

For the compound `C=CCOC(=O)Nc1ccc(-c2c(C#N)c3ccc(OC(F)F)cc3n2CC)cc1` [Compound 1135], the IC50 was less than 0.5 µM. Next, `CCCNC(=O)Nc1ccc(-c2c(C#N)c3ccc(OC(F)F)cc3n2CC)cc1` [Compound 1136]: 0.5 to 2 µM; `CCn1c(-c2ccc(NC(=O)NC(C)C)cc2)c(C#N)c2ccc(OC(F)F)cc21` [Compound 1137]: 0.5 to 2 µM. Compound `CCCCNC(=O)Nc1ccc(-c2c(C#N)c3ccc(OC(F)F)cc3n2CC)cc1` [Compound 1138] came in with an IC50 of 0.5 to 2 µM. As for `C=CCNC(=O)Nc1ccc(-c2c(C#N)c3ccc(OC(F)F)cc3n2CC)cc1` [Compound 1139], the IC50 was in the range of 0.5 to 2 µM. Regarding `CCCS(=O)(=O)Nc1ccc(-c2c(C#N)c3ccc(OCC)cc3n2C2CCCC2)cc1` [Compound 1140], the IC50 fell in the range of 0.5 to 2 µM. Compound `CCOc1ccc2c(C#N)c(-c3ccc(NS(=O)(=O)C4CC4)cc3)n(C3CCCC3)c2c1` [Compound 1141] had a 50% inhibitory concentration (IC50) of 0.5 to 2 µM.

The compound `CC(C)OC(=O)Nc1ccc(-c2c(C#N)c3ccc(OCCN4CCCC4)cc3n2C2CCC2)cc1` [Compound 1142] gave an IC50 of less than 0.5 µM. In the case of `CCNC(=O)Nc1ccc(-c2c(C#N)c3ccc(OCC)cc3n2C2CCCC2)cc1` [Compound 1143], the IC50 was less than 0.5 µM. `CCCNC(=O)Nc1ccc(-c2c(C#N)c3ccc(OCC)cc3n2C2CCCC2)cc1` [Compound 1144]: the IC50 is less than 0.5 µM.

For `CCOc1ccc2c(C#N)c(-c3ccc(NC(=O)OC4CCCC4)nc3)n(C3CCC3)c2c1` [Compound 1145], the IC50 lay in the range of 0.5 to 2 µM.

Turning to `CCOc1ccc2c(C#N)c(-c3ccc(NC(=O)OCC4CC4)cc3)n(C3CCC3)c2c1` [Compound 1146], the IC50 is less than 0.5 µM. `CCOC(=O)Nc1ccc(-c2c(C#N)c3ccc(OCC)cc3n2CC2CC2)cc1` [Compound 1148] came in with a half-maximal inhibitory concentration (IC50) of less than 0.5 µM. On to `CCCOC(=O)Nc1ccc(-c2c(C#N)c3ccc(OCC)cc3n2CC2CC2)cc1` [Compound 1149], for which the IC50 was less than 0.5 µM. The figure for `CCOc1ccc2c(C#N)c(-c3ccc(NC(=O)OC(C)C)cc3)n(CC3CC3)c2c1` [Compound 1150] is less than 0.5 µM; for `CCOc1ccc2c(C#N)c(-c3ccc(NC(=O)OCC(C)C)cc3)n(CC3CC3)c2c1` [Compound 1151] it is less than 0.5 µM. As for `CCOc1ccc2c(C#N)c(-c3ccc(NC(=O)OCC(C)(C)C)cc3)n(CC3CC3)c2c1` [Compound 1152], the IC50 was less than 0.5 µM. The compound `CCOc1ccc2c(C#N)c(-c3ccc(NC(=O)OCc4ccccc4)cc3)n(CC3CC3)c2c1` [Compound 1153] came in with an IC50 of less than 0.5 µM. In the case of `CCOc1ccc2c(C#N)c(-c3ccc(NC(=O)OCc4ccccc4)cc3)n(CC3CC3)c2c1` [Compound 1155], the IC50 fell in the range of 0.5 to 2 µM. Next, `CCNC(=O)Nc1ccc(-c2c(C#N)c3ccc(OCC)cc3n2CC2CC2)cc1` [Compound 1156]: less than 0.5 µM.

As to `CCOc1ccc2c(C#N)c(-c3ccc(NC(=O)OCC4CCC4)cc3)n(C3CCC3)c2c1` [Compound 1158], the IC50 was less than 0.5 µM. `CCOc1ccc2c(C#N)c(-c3ccc(NC(=O)NC(C)CC)cc3)n(C3CCC3)c2c1` (stereo not drawn) [Compound 1159] returned an IC50 of less than 0.5 µM. As for `CCS(=O)(=O)Nc1ccc(-c2c(C#N)c3cc(OC)ccc3n2C2CCC2)cc1` [Compound 1161], the IC50 was < 0.5 µM and 0.5 to 2 µM. On to `CCCNC(=O)Nc1ccc(-c2c(C#N)c3cc(OC)ccc3n2C2CCC2)cc1` [Compound 1162], for which the IC50 lay in the range of 0.5 to 2 µM. `COc1ccc2c(c1)c(C#N)c(-c1ccc(NC(=O)NC(C)C)cc1)n2C1CCC1` [Compound 1163] had an IC50 of 0.5 to 2 µM. Regarding `CCCCNC(=O)Nc1ccc(-c2c(C#N)c3cc(OC)ccc3n2C2CCC2)cc1` [Compound 1164], the IC50 was < 0.5 µM and > 2 µM.

Compound `COc1ccc2c(c1)c(C#N)c(-c1ccc(NC(=O)NC3CCCC3)cc1)n2C1CCC1` [Compound 1165] returned a half-maximal inhibitory concentration (IC50) of 0.5 to 2 µM. As to `CCOc1ccc2c(C#N)c(-c3ccc(NC(=O)OC4CCC4)cc3)n(C3CCC3)c2c1` [Compound 1167], the IC50 is less than 0.5 µM. Regarding `CCOc1ccc2c(C#N)c(-c3ccc(NC(=O)NC4CCC4)cc3)n(C3CCC3)c2c1` [Compound 1168], the IC50 is less than 0.5 µM.

The compound `CCOc1ccc2c(C#N)c(-c3ccc(NC(=O)OC(C)C)cc3)n(CC3CCC3)c2c1` [Compound 1169] registered an IC50 of less than 0.5 µM. `CCCS(=O)(=O)Nc1ccc(-c2c(C#N)c3ccc(OCC)cc3n2CC2CCC2)cc1` [Compound 1170] returned an IC50 of 0.5 to 2 µM.

Regarding `CCOc1ccc2c(C#N)c(-c3ccc(NC(=O)NC(C)C)cc3)n(CC3CCC3)c2c1` [Compound 1171], the 50% inhibitory concentration (IC50) is less than 0.5 µM. As to `CCOc1ccc2c(C#N)c(-c3ccc(NC(=O)NC4CCCC4)cc3)n(CC3CC3)c2c1` [Compound 1173], the IC50 is less than 0.5 µM. As to `CC(C)OC(=O)Nc1ccc(-c2c(C#N)c3ccc(OCCF)cc3n2C2CCC2)cc1` [Compound 1174], the IC50 is less than 0.5 µM.

The compound `CCCS(=O)(=O)Nc1ccc(-c2c(C#N)c3ccc(OCCF)cc3n2C2CCC2)cc1` [Compound 1175] showed an IC50 of less than 0.5 µM. The compound `CCOC(=O)Nc1ccc(-c2c(C#N)c3cc(OC)ccc3n2C2CCC2)cc1` [Compound 1176] came in with an IC50 of 0.5 to 2 µM. As for `CCCOC(=O)Nc1ccc(-c2c(C#N)c3cc(OC)ccc3n2C2CCC2)cc1` [Compound 1177], the IC50 was < 0.5 µM and 0.5 to 2 µM. Consider `COc1ccc2c(c1)c(C#N)c(-c1ccc(NC(=O)OCC(C)C)cc1)n2C1CCC1` [Compound 1178], for which the IC50 is less than 0.5 µM. Next, `C=CCOC(=O)Nc1ccc(-c2c(C#N)c3cc(OC)ccc3n2C2CCC2)cc1` [Compound 1180]: 0.5 to 2 µM; `CCCS(=O)(=O)Nc1ccc(-c2c(C#N)c3cc(OC)ccc3n2C2CCC2)cc1` [Compound 1181]: 0.5 to 2 µM. The figure for `COc1ccc2c(c1)c(C#N)c(-c1ccc(NS(=O)(=O)C3CC3)cc1)n2C1CCC1` [Compound 1182] is < 0.5 µM and > 2 µM; for `CCn1c(-c2ccc(NC(=O)C3CC3)cc2)c(C#N)c2ccc(OCCn3cccn3)cc21` [Compound 1184] it is 0.5 to 2 µM; for `CCCNC(=O)Nc1ccc(-c2c(C#N)c3ccc(OCc4cccnc4)cc3n2CC)cc1` [Compound 1185] it is less than 0.5 µM. As for `N#Cc1c(-c2ccc(NC(=O)OC3CCCC3)cc2)n(C2CCC2)c2cc(OC(F)F)ccc12` [Compound 1186], the half-maximal inhibitory concentration (IC50) is 0.5 to 2 µM. Take `CCCNC(=O)Nc1ccc(-c2c(C#N)c3ccc(OC(F)F)cc3n2C2CCC2)cc1` [Compound 1187]: the IC50 was 0.5 to 2 µM. The compound `CCCS(=O)(=O)Nc1ccc(-c2c(C#N)c3ccc(OC(F)F)cc3n2C2CCCC2)cc1` [Compound 1188] registered an IC50 of 0.5 to 2 µM. Turning to `N#Cc1c(-c2ccc(NS(=O)(=O)C3CC3)cc2)n(C2CCCC2)c2cc(OC(F)F)ccc12` [Compound 1189], the IC50 is less than 0.5 µM. Consider `N#Cc1c(-c2ccc(NC(=O)NC3CCCC3)cc2)n(C2CCC2)c2cc(OC(F)F)ccc12` [Compound 1190], for which the 50% inhibitory concentration (IC50) was in the range of 0.5 to 2 µM. `CCOc1ccc2c(C#N)c(-c3ccc(NC(=O)NC4CC4)cc3)n(C3CCC3)c2c1` [Compound 1191] had an IC50 of 0.5 to 2 µM. For the compound `CCOc1ccc2c(C#N)c(-c3ccc(NC(=O)OCCN4CCOCC4)cc3)n(C3CCC3)c2c1` [Compound 1192], the IC50 was in the range of 0.5 to 2 µM.

For the compound `CCOC(=O)Nc1ccc(-c2c(C#N)c3cc(OCC)ccc3n2C2CCC2)cc1` [Compound 1193], the IC50 is less than 0.5 µM. In turn, `CCOc1ccc2c(c1)c(C#N)c(-c1ccc(NC(=O)OC(C)C)cc1)n2C1CCC1` [Compound 1195] displayed an IC50 of less than 0.5 µM.

`CCCCOC(=O)Nc1ccc(-c2c(C#N)c3cc(OCC)ccc3n2C2CCC2)cc1` [Compound 1197]: the IC50 was 0.5 to 2 µM and < 0.5 µM. Next, `CCCCOC(=O)Nc1ccc(-c2c(C#N)c3cc(OCC)ccc3n2C2CCC2)cc1` [Compound 1198]: less than 0.5 µM. `CCOc1ccc2c(c1)c(C#N)c(-c1ccc(NC(=O)OC3CCCC3)cc1)n2C1CCC1` [Compound 1199]: the IC50 is less than 0.5 µM. The compound `CCOc1ccc2c(c1)c(C#N)c(-c1ccc(NC(=O)OCC(C)(C)C)cc1)n2C1CCC1` [Compound 1200] yielded an IC50 of less than 0.5 µM. Next, `CCCOc1ccc2c(C#N)c(-c3ccc(NC(=O)OCC)cc3)n(C(C)C)c2c1` [Compound 1202]: less than 0.5 µM. Take `CCCOC(=O)Nc1ccc(-c2c(C#N)c3ccc(OCCC)cc3n2C(C)C)cc1` [Compound 1203]: the concentration for half-maximal inhibition (IC50) is less than 0.5 µM. Compound `CCCOc1ccc2c(C#N)c(-c3ccc(NC(=O)OC(C)C)cc3)n(C(C)C)c2c1` [Compound 1204] gave an IC50 of less than 0.5 µM. `CCCOc1ccc2c(C#N)c(-c3ccc(NC(=O)OC4CCCC4)cc3)n(C(C)C)c2c1` [Compound 1205] gave an IC50 of less than 0.5 µM.

In turn, `CCCOc1ccc2c(C#N)c(-c3ccc(NC(=O)OCC(C)C)cc3)n(C(C)C)c2c1` [Compound 1206] gave an IC50 of less than 0.5 µM. Compound `CCCOc1ccc2c(C#N)c(-c3ccc(NC(=O)OCC(C)(C)C)cc3)n(C(C)C)c2c1` [Compound 1207] had an IC50 of less than 0.5 µM. `CCOc1ccc2c(C#N)c(-c3ccc(NC(=O)OCC4(C)CC4)cc3)n(C3CCC3)c2c1` [Compound 1208] came in with an IC50 of less than 0.5 µM. Next, `CCOc1ccc2c(C#N)c(-c3ccc(NC(=O)OC4(C)CCCC4)cc3)n(C3CCC3)c2c1` [Compound 1209]: less than 0.5 µM; `CCOc1ccc2c(C#N)c(-c3ccc(NC(=O)OCCCN4CCOCC4)cc3)n(C3CCC3)c2c1` [Compound 1210]: less than 0.5 µM.
